Data as given in US20240408117A1, “COMPOSITIONS AND METHODS FOR TREATING HEMIPLEGIC MIGRAINE” (Schedule 1 Therapeutics, Inc., priority 2023, published 2024).
≈ marks a conversion by molar mass, not a printed value.

Assays:
[1] = Solubility of cannabidiol in solvents, oils and buffers at 25° C.; assay type: physicochemical
[2] = Accelerated and long-term stability studies of cannabidiol (ICH Q1A (R2)); assay type: physicochemical; conditions: batches stored per ICH Q1A (R2)
Procedure: Manufacturing of all lots of cannabidiol was conducted in a manner consistent with Good Manufacturing Practices and ICH Q7 regulations. Consistent with these principles, and in direct regard to production of cannabidiol, the manufacturer conducted accelerated stability studies utilizing batches of cannabidiol manufactured at full scale. […]. In addition, the manufacturer has batches of cannabidiol on a long-term stability study. […] For these batches, the data and results from these stability studies are in compliance with documentation procedures.

OEL of cannabidiol = conditions: estimated
[3] = Solubility of dronabinol at 25° C.; assay type: physicochemical; conditions: for solubility: organic solvent or mixture
Procedure: Solubility at 25° C.: Dronabinol is immiscible in water.

[4] = Hygroscopicity of dronabinol by thermogravimetric analysis; assay type: physicochemical

C=C(C)[C@@H]1CCC(C)=C[C@H]1c1c(O)cc(CCCCC)cc1O [Cannabidiol, 2-[(1R,6R)-3-methyl-6-prop-1-en-2-ylcyclohex-2-en-1-yl]-5-pentylbenzene-1,3-diol]
solubility ([1]; Britton Robinson Buffer, aqueous buffer, BRB pH 6, 25° C.): 0.00013 mg/mL (≈ 0.000413 mM)
solubility ([1]; Britton Robinson Buffer, aqueous buffer, BRB pH 8, 25° C.): 0.00012 mg/mL (≈ 0.000382 mM)
solubility ([1]; Britton Robinson Buffer, pH 4, aqueous buffer, BRB pH4, 25° C.): 0.00011 mg/mL (≈ 0.00035 mM)
solubility ([1]; Britton Robinson buffer, aqueous buffer, BRB pH 10, 25° C.): 0.00013 mg/mL (≈ 0.000413 mM)
solubility ([1]; Britton Robinson buffer, aqueous buffer, BRB pH 11, 25° C.): 0.00041 mg/mL (≈ 0.0013 mM)
Solubility ([1]; Heptane, 25° C.): 64.6 mg/mL (≈ 205 mM)
Solubility ([1]; Isooctane, 25° C.): 43.9 mg/mL (≈ 140 mM)
Solubility ([1]; Water, 25° C.): <0.1 mg/mL
solubility ([1]; Water, 25° C.): < 0.1 mg/mL
solubility ([1]; aqueous buffer, BRB (Britton Robinson Buffer) pH 2, 25° C.): 0.00011 mg/mL (≈ 0.00035 mM)
solubility ([1]; aqueous buffer, Britton Robinson Buffers): < 0.1 mg/mL
solubility ([1]; aqueous buffer, Phosphate Buffer pH 6.5 without SLS, 25° C.): 0.00015 mg/mL (≈ 0.000477 mM)
solubility ([1]; aqueous with cosolvent or surfactant or cyclodextrin, Cremophor EL, 25° C.): > 100 mg/mL
solubility ([1]; aqueous with cosolvent or surfactant or cyclodextrin, Tween 80, 25° C.): > 100 mg/mL
Solubility ([1]; n-Decane, 25° C.): 36.8 mg/mL (≈ 117 mM)
solubility ([1]; oil or lipid, Dodecane Oil, 25° C.): 28 mg/mL (≈ 89 mM)
solubility ([1]; oil or lipid, Mineral Oil, 25° C.): 16 mg/mL (≈ 50.9 mM)
solubility ([1]; oil or lipid, Sesame Oil, 25° C.): 216 mg/mL (≈ 687 mM)
solubility ([1]; oil or lipid, Sunflower Seed Oil, 25° C.): > 100 mg/mL
solubility ([1]; organic solvent or mixture, 1,2-Dimethyloxyethane, 25° C.): > 100 mg/mL
solubility ([1]; organic solvent or mixture, 1,4-dioxane, 25° C.): > 100 mg/mL
solubility ([1]; organic solvent or mixture, 1-Propanol, 25° C.): > 100 mg/mL
solubility ([1]; organic solvent or mixture, 2-Propanol (IPA), 25° C.): > 100 mg/mL
solubility ([1]; organic solvent or mixture, 2-butanone, 25° C.): > 100 mg/mL
solubility ([1]; organic solvent or mixture, 2-methyl tetrahydrofuran (2-MeTHF), 25° C.): > 100 mg/mL
solubility ([1]; organic solvent or mixture, 2-methyl tetrahydrofuran saturated with water, 25° C.): > 100 mg/mL
solubility ([1]; organic solvent or mixture, Acetone, 25° C.): > 100 mg/mL
solubility ([1]; organic solvent or mixture, Acetonitrile (ACN), 25° C.): > 100 mg/mL
solubility ([1]; organic solvent or mixture, Anisole, 25° C.): > 100 mg/mL
solubility ([1]; organic solvent or mixture, Chloroform, 25° C.): > 100 mg/mL
solubility ([1]; organic solvent or mixture, Cumene, 25° C.): > 100 mg/mL
solubility ([1]; organic solvent or mixture, Cyclohexane, 25° C.): > 100 mg/mL
solubility ([1]; organic solvent or mixture, DMSO, 25° C.): > 100 mg/mL
solubility ([1]; organic solvent or mixture, Dichloromethane, 25° C.): > 100 mg/mL
solubility ([1]; organic solvent or mixture, Diethyl Ether, 25° C.): > 100 mg/mL
solubility ([1]; organic solvent or mixture, Ethanol (EtOH), 25° C.): > 100 mg/mL
solubility ([1]; organic solvent or mixture, Ethyl Acetate (EtOAc), 25° C.): > 100 mg/mL
solubility ([1]; organic solvent or mixture, Ethyl Formate, 25° C.): > 100 mg/mL
solubility ([1]; organic solvent or mixture, Isobutanol, 25° C.): > 100 mg/mL
solubility ([1]; organic solvent or mixture, Isopropyl Acetate (IPAc), 25° C.): > 100 mg/mL
solubility ([1]; organic solvent or mixture, Methanol (MeOH), 25° C.): > 100 mg/mL
solubility ([1]; organic solvent or mixture, N-methyl-pyrrolidone, 25° C.): > 100 mg/mL
solubility ([1]; organic solvent or mixture, Tetrahydrofuran, 25° C.): > 100 mg/mL
solubility ([1]; organic solvent or mixture, Toluene, 25° C.): > 100 mg/mL
solubility ([1]; organic solvent or mixture, all other solvents examined with the exception of heptane, n-decane and isooctane): > 100 mg/mL
solubility ([1]; organic solvent or mixture, methylcyclohexane, 25° C.): > 100 mg/mL
solubility ([1]; organic solvent or mixture, n-hexane, 25° C.): > 100 mg/mL
solubility ([1]; organic solvent or mixture, p-Xylene, 25° C.): > 100 mg/mL
solubility ([1]; organic solvent or mixture, tert-Butyl methyl ether (MTBE), 25° C.): > 100 mg/mL
solubility ([1]; phosphate buffer with 0.4% SLS, aqueous with cosolvent or surfactant or cyclodextrin, Phosphate Buffer pH 6.5 with 0.4% SLS, 25° C.): 0.00012 mg/mL (≈ 0.000382 mM)
Stability (impurity levels, assay) [2]: no trends towards increased impurity levels or decrease in assay
OEL (OEL of cannabidiol): 5-20 μg/m^3

CCCCCc1cc(O)c2c(c1)OC(C)(C)[C@@H]1CCC(C)=C[C@@H]21 [Dronabinol, 2-(6aR,10aR) 6a,7,8,10a-tetrahydro-6,6,9-trimethyl-3-pentyl-6H-dibenzo[b,d]pyran-l-ol]
Solubility ([3]; Water): immiscible
solubility ([3]; Acetone): 100 mg/mL (≈ 318 mM)
solubility ([3]; Ethanol): 100 mg/mL (≈ 318 mM)
Hygroscopicity [4]: non-hygroscopic
weight change ([4]; approximately 140° C.): less than 0.1%
